# Test results reported in ChEMBL document CHEMBL4665869, “New thiazolopyrimidine as anticancer agents: Synthesis, biological evaluation, DNA binding, molecular modeling and ADMET study” (Bioorg Med Chem Lett, 2020).
# What was measured:
# [1] = tested on: LOX IMVI; assay: Growth inhibition of human LOX IMVI cells at 10 uM relative to control; assay type: functional; conditions: read-out: GI
# [2] = tested on: MDA-MB-468; assay: Growth inhibition of human MDA-MB-468 cells at 10 uM relative to control; assay type: functional; conditions: read-out: GI
# [3] = tested on: T47D; assay: Growth inhibition of human T47D cells at 10 uM relative to control; assay type: functional; conditions: read-out: GI
# [4] = tested on: CCRF-CEM; assay: Growth inhibition of human CCRF-CEM cells at 10 uM relative to control; assay type: functional; conditions: read-out: GI
# [5] = tested on: HL-60(TB); assay: Growth inhibition of human HL-60(TB) cells at 10 uM relative to control; assay type: functional; conditions: read-out: GI
# [6] = tested on: K562; assay: Growth inhibition of human K562 cells at 10 uM relative to control; assay type: functional; conditions: read-out: GI
# [7] = tested on: MOLT-4; assay: Growth inhibition of human MOLT-4 cells at 10 uM relative to control; assay type: functional; conditions: read-out: GI
# [8] = tested on: RPMI-8226; assay: Growth inhibition of human RPMI-8226 cells at 10 uM relative to control; assay type: functional; conditions: read-out: GI
# [9] = tested on: SR; assay: Growth inhibition of human SR cells at 10 uM relative to control; assay type: functional; conditions: read-out: GI
# [10] = tested on: A549; assay: Growth inhibition of human A549 cells at 10 uM relative to control; assay type: functional; conditions: read-out: GI
# [11] = tested on: HOP-62; assay: Growth inhibition of human HOP-62 cells at 10 uM relative to control; assay type: functional; conditions: read-out: GI
# [12] = tested on: HOP-92; assay: Growth inhibition of human HOP-92 cells at 10 uM relative to control; assay type: functional; conditions: read-out: GI
# [13] = tested on: NCI-H226; assay: Growth inhibition of human NCI-H226 cells at 10 uM relative to control; assay type: functional; conditions: read-out: GI
# [14] = tested on: NCI-H23; assay: Growth inhibition of human NCI-H23 cells at 10 uM relative to control; assay type: functional; conditions: read-out: GI
# [15] = tested on: NCI-H322M; assay: Growth inhibition of human NCI-H322M cells at 10 uM relative to control; assay type: functional; conditions: read-out: GI
# [16] = tested on: NCI-H460; assay: Growth inhibition of human NCI-H460 cells at 10 uM relative to control; assay type: functional; conditions: read-out: GI
# [17] = tested on: NCI-H522; assay: Growth inhibition of human NCI-H522 cells at 10 uM relative to control; assay type: functional; conditions: read-out: GI
# [18] = tested on: SW-620; assay: Growth inhibition of human SW-620 cells at 10 uM relative to control; assay type: functional; conditions: read-out: GI
# [19] = tested on: COLO 205; assay: Growth inhibition of human COLO 205 cells at 10 uM relative to control; assay type: functional; conditions: read-out: GI
# [20] = tested on: HCC 2998; assay: Growth inhibition of human HCC 2998 cells at 10 uM relative to control; assay type: functional; conditions: read-out: GI
# [21] = tested on: HCT-116; assay: Growth inhibition of human HCT-116 cells at 10 uM relative to control; assay type: functional; conditions: read-out: GI
# [22] = tested on: HCT-15; assay: Growth inhibition of human HCT-15 cells at 10 uM relative to control; assay type: functional; conditions: read-out: GI
# [23] = tested on: HT-29; assay: Growth inhibition of human HT-29 cells at 10 uM relative to control; assay type: functional; conditions: read-out: GI
# [24] = tested on: KM12; assay: Growth inhibition of human KM12 cells at 10 uM relative to control; assay type: functional; conditions: read-out: GI
# [25] = tested on: SF-268; assay: Growth inhibition of human SF-268 cells at 10 uM relative to control; assay type: functional; conditions: read-out: GI
# [26] = tested on: SF-295; assay: Growth inhibition of human SF-295 cells at 10 uM relative to control; assay type: functional; conditions: read-out: GI
# [27] = tested on: SF-539; assay: Growth inhibition of human SF-539 cells at 10 uM relative to control; assay type: functional; conditions: read-out: GI
# [28] = tested on: SNB-19; assay: Growth inhibition of human SNB-19 cells at 10 uM relative to control; assay type: functional; conditions: read-out: GI
# [29] = tested on: SNB-75; assay: Growth inhibition of human SNB-75 cells at 10 uM relative to control; assay type: functional; conditions: read-out: GI
# [30] = tested on: U-251; assay: Growth inhibition of human U-251 cells at 10 uM relative to control; assay type: functional; conditions: read-out: GI
# [31] = tested on: Malme-3M; assay: Growth inhibition of human Malme-3M cells at 10 uM relative to control; assay type: functional; conditions: read-out: GI
# [32] = tested on: M14; assay: Growth inhibition of human M14 cells at 10 uM relative to control; assay type: functional; conditions: read-out: GI
# [33] = tested on: MDA-MB-435; assay: Growth inhibition of human MDA-MB-435 cells at 10 uM relative to control; assay type: functional; conditions: read-out: GI
# [34] = tested on: SK-MEL-2; assay: Growth inhibition of human SK-MEL-2 cells at 10 uM relative to control; assay type: functional; conditions: read-out: GI
# [35] = tested on: SK-MEL-28; assay: Growth inhibition of human SK-MEL-28 cells at 10 uM relative to control; assay type: functional; conditions: read-out: GI
# [36] = tested on: SK-MEL-5; assay: Growth inhibition of human SK-MEL-5 cells at 10 uM relative to control; assay type: functional; conditions: read-out: GI
# [37] = tested on: UACC-257; assay: Growth inhibition of human UACC-257 cells at 10 uM relative to control; assay type: functional; conditions: read-out: GI
# [38] = tested on: UACC-62; assay: Growth inhibition of human UACC-62 cells at 10 uM relative to control; assay type: functional; conditions: read-out: GI
# [39] = tested on: IGROV-1; assay: Growth inhibition of human IGROV-1 cells at 10 uM relative to control; assay type: functional; conditions: read-out: GI
# [40] = tested on: OVCAR-4; assay: Growth inhibition of human OVCAR-4 cells at 10 uM relative to control; assay type: functional; conditions: read-out: GI
# [41] = tested on: OVCAR-5; assay: Growth inhibition of human OVCAR-5 cells at 10 uM relative to control; assay type: functional; conditions: read-out: GI
# [42] = tested on: OVCAR-8; assay: Growth inhibition of human OVCAR-8 cells at 10 uM relative to control; assay type: functional; conditions: read-out: GI
# [43] = tested on: NCI/ADR-RES; assay: Growth inhibition of human NCI/ADR-RES cells at 10 uM relative to control; assay type: functional; conditions: read-out: GI
# [44] = tested on: SK-OV-3; assay: Growth inhibition of human SK-OV-3 cells at 10 uM relative to control; assay type: functional; conditions: read-out: GI
# [45] = tested on: 786-0; assay: Growth inhibition of human 786-0 cells at 10 uM relative to control; assay type: functional; conditions: read-out: GI
# [46] = tested on: A498; assay: Growth inhibition of human A498 cells at 10 uM relative to control; assay type: functional; conditions: read-out: GI
# [47] = tested on: ACHN; assay: Growth inhibition of human ACHN cells at 10 uM relative to control; assay type: functional; conditions: read-out: GI
# [48] = tested on: CAKI-1; assay: Growth inhibition of human CAKI-1 cells at 10 uM relative to control; assay type: functional; conditions: read-out: GI
# [49] = tested on: RXF 393; assay: Growth inhibition of human RXF 393 cells at 10 uM relative to control; assay type: functional; conditions: read-out: GI
# [50] = tested on: SN12C; assay: Growth inhibition of human SN12C cells at 10 uM relative to control; assay type: functional; conditions: read-out: GI
# [51] = tested on: TK-10; assay: Growth inhibition of human TK-10 cells at 10 uM relative to control; assay type: functional; conditions: read-out: GI
# [52] = tested on: UO-31; assay: Growth inhibition of human UO-31 cells at 10 uM relative to control; assay type: functional; conditions: read-out: GI
# [53] = tested on: PC-3; assay: Growth inhibition of human PC-3 cells at 10 uM relative to control; assay type: functional; conditions: read-out: GI
# [54] = tested on: DU-145; assay: Growth inhibition of human DU-145 cells at 10 uM relative to control; assay type: functional; conditions: read-out: GI
# [55] = tested on: MCF7; assay: Growth inhibition of human MCF7 cells at 10 uM relative to control; assay type: functional; conditions: read-out: GI
# [56] = tested on: MDA-MB-231; assay: Growth inhibition of human MDA-MB-231 cells at 10 uM relative to control; assay type: functional; conditions: read-out: GI
# [57] = tested on: Hs-578T; assay: Growth inhibition of human Hs-578T cells at 10 uM relative to control; assay type: functional; conditions: read-out: GI
# [58] = tested on: BT-549; assay: Growth inhibition of human BT-549 cells at 10 uM relative to control; assay type: functional; conditions: read-out: GI
# [59] = target: DNA; assay: Displacement of methyl green from DNA (unknown origin) assessed as DNA intercalation after 24 hrs by colorimetric assay; assay type: nucleic-acid assay
compound,measurement,setting,value
COc1cc(/C=C/C2=CC(c3cc(OC)c(OC)c(OC)c3)N3C(C)=CSC3=N2)cc(OC)c1OC (centres undefined),inhibition of growth at 10 µM,[1],< 10%
same,inhibition of growth at 10 µM,[2],< 10%
same,inhibition of growth at 10 µM,[3],< 10%
same,inhibition of growth at 10 µM,[4],< 10%
same,inhibition of growth at 10 µM,[5],< 10%
same,inhibition of growth at 10 µM,[6],< 10%
same,inhibition of growth at 10 µM,[7],< 10%
same,inhibition of growth at 10 µM,[8],< 10%
same,inhibition of growth at 10 µM,[9],< 10%
same,inhibition of growth at 10 µM,[10],< 10%
same,inhibition of growth at 10 µM,[11],< 10%
same,inhibition of growth at 10 µM,[12],< 10%
same,inhibition of growth at 10 µM,[13],< 10%
same,inhibition of growth at 10 µM,[14],< 10%
same,inhibition of growth at 10 µM,[15],< 10%
same,inhibition of growth at 10 µM,[16],< 10%
same,inhibition of growth at 10 µM,[17],14.5%
same,inhibition of growth at 10 µM,[18],< 10%
same,inhibition of growth at 10 µM,[19],< 10%
same,inhibition of growth at 10 µM,[20],< 10%
same,inhibition of growth at 10 µM,[21],< 10%
same,inhibition of growth at 10 µM,[22],< 10%
same,inhibition of growth at 10 µM,[23],< 10%
same,inhibition of growth at 10 µM,[24],< 10%
same,inhibition of growth at 10 µM,[25],< 10%
same,inhibition of growth at 10 µM,[26],< 10%
same,inhibition of growth at 10 µM,[27],< 10%
same,inhibition of growth at 10 µM,[28],< 10%
same,inhibition of growth at 10 µM,[29],12.5%
same,inhibition of growth at 10 µM,[30],< 10%
same,inhibition of growth at 10 µM,[31],< 10%
same,inhibition of growth at 10 µM,[32],< 10%
same,inhibition of growth at 10 µM,[33],< 10%
same,inhibition of growth at 10 µM,[34],< 10%
same,inhibition of growth at 10 µM,[35],< 10%
same,inhibition of growth at 10 µM,[36],< 10%
same,inhibition of growth at 10 µM,[37],< 10%
same,inhibition of growth at 10 µM,[38],< 10%
same,inhibition of growth at 10 µM,[39],< 10%
same,inhibition of growth at 10 µM,[40],< 10%
same,inhibition of growth at 10 µM,[41],< 10%
same,inhibition of growth at 10 µM,[42],< 10%
same,inhibition of growth at 10 µM,[43],< 10%
same,inhibition of growth at 10 µM,[44],< 10%
same,inhibition of growth at 10 µM,[45],< 10%
same,inhibition of growth at 10 µM,[46],< 10%
same,inhibition of growth at 10 µM,[47],< 10%
same,inhibition of growth at 10 µM,[48],< 10%
same,inhibition of growth at 10 µM,[49],< 10%
same,inhibition of growth at 10 µM,[50],< 10%
same,inhibition of growth at 10 µM,[51],< 10%
same,inhibition of growth at 10 µM,[52],< 10%
same,inhibition of growth at 10 µM,[53],< 10%
same,inhibition of growth at 10 µM,[54],< 10%
same,inhibition of growth at 10 µM,[55],< 10%
same,inhibition of growth at 10 µM,[56],< 10%
same,inhibition of growth at 10 µM,[57],< 10%
same,inhibition of growth at 10 µM,[58],< 10%
same,IC50,[59],91.48 µg/mL
